In US11840532B2, “Modulators of THR-β and methods of use thereof” (ALIGOS THERAPEUTICS, INC., priority 2020, dated 2023):

Tests used:
[1] = target: T1, human thyroid receptor alpha ligand-binding domain (THRα) (Homo sapiens, UniProt P10827); assay: THR Biochemical Assay (Assay 1): TR-FRET thyroid receptor coactivator assay, alpha LBD; settings: TR-FRET coactivator recruitment; for Emax: read-out: Activity category Assay 1 THRα (Emax); for EC50: agonist EC50, read-out: Activity category Assay 1 THRα (EC50)
T1 construct: purchased Invitrogen
T1 sequence (P10827 163-410 isoform P10827-2 limits assumed, other chains not shown): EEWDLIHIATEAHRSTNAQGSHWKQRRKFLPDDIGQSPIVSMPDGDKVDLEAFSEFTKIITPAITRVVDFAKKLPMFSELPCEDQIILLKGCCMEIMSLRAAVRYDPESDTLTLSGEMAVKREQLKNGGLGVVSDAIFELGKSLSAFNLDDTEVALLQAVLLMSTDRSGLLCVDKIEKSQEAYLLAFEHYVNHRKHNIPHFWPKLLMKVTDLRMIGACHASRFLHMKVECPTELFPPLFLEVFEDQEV
From the text: (§1) THR Biochemical Assay (sAsay 1)
(§2) The TR-FRET thyroid receptor beta coactivator assay was used with slight, optimized modifications of the manufacturer's protocol (Invitrogen). The assay uses a terbium-labeled anti-GST antibody, a glutathione-S-transferase (GST) tagged human thyroid receptor, beta or alpha, ligand-binding domain (LBD), and a fluorescein labeled SRC2-2 coactivator peptide. The antibody interacts with the LBD, where the agonist also binds, resulting in increased affinity for the SRC2-2 coactivator peptide causing energy transfer of the acceptor fluorophore and a FRET emission shift from 495 to 520 nm. The energy transfer is detected as an increase in the fluorescence emission of the fluorescein acceptor, and a decrease in the fluorescence emission of the terbium donor. The assay is performed in a 384-well black plate in a final volume of 20 μL. Serial dilution of various test agonists was performed in DMSO (1% final DMSO concentration) and added to the test plate. Thyroid receptor beta LBD is added to the plate at a final concentration of 1 nM, followed by the mixture of the fluorescein labeled SRC2-2 coactivator peptide, and the terbium-labeled anti-GST antibody at final concentrations of 200 nM and 2 nM respectively. The assay is incubated for 1 h at rt protected from light. The TR-FRET is then measured on a Victor multilabel reader (Perkin Elmer) using an excitation wavelength of 340 nm with emission filters of 495 nm and 520 nm. The assay is quantified by expressing a ratio (520:495) of the intensities, and the resulting activation curves; EC50 values were generated using a sigmoidal dose response (variable slope) equation in GraphPad™ Prism 8.0.

[2] = target: T2, human thyroid receptor beta ligand-binding domain (THRβ) (Homo sapiens, UniProt P10828); assay: THR Biochemical Assay (Assay 1): TR-FRET thyroid receptor beta coactivator assay; settings: TR-FRET coactivator recruitment, THRβ LBD; for Emax: read-out: Activity category Assay 1 THRβ (Emax); for EC50: agonist EC50, read-out: Activity category Assay 1 THRβ (EC50)
T2 construct: purchased Invitrogen
T2 sequence (P10828 217-461 limits assumed): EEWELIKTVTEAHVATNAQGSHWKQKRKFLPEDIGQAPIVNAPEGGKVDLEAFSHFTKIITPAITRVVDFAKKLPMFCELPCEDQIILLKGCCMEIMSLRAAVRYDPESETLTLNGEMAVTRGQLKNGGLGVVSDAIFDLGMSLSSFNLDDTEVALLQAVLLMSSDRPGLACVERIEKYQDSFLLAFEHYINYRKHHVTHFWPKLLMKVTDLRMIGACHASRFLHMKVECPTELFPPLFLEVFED
From the text: as §1, §2

Huh-7 cells = assay: Huh-7 Differential Gene Expression (Assay 2): CPT1A RT-qPCR; type: cell-based; settings: Homo sapiens, CPT1A gene expression in Huh-7 cells, 24 hr treatment, TH-depleted DMEM; for EC50: read-out: Activity category Assay 2 EC50; for Emax: read-out: Activity category Assay 2 Emax
Experimental: Huh-7 Differential Gene Expression (Assay 2)
Fetal bovine serum (FBS) was incubated with washed resin (50 mg resin/mL FBS; resin weight is dry weight of resin prior to washing) for 5 hr at room temperature on a rotor. The FBS was separated from the resin via centrifugation and incubated with new, washed resin for 18h at room temperature on a rotor.
Cell Culture and Drug Treatment
Huh-7 cells were cultured in DMEM (10-013-CM, Corning) supplemented with 10% FBS and 1% Pen-Strep at 37° C. under 5% CO2. When 70-80% confluence was reached, the cells were removed by trypsinization. The medium was aspirated from the cell culture dish, the cell monolayer was washed with 1× PBS, and 0.05% trypsin, 0.53 mM EDTA (25-052-CV, Corning) solution was added to the dish. After 3 min incubation, the cells were detached completely by repeatedly pipetting solution onto the monolayer. Equal volume of DMEM supplemented with 10% rFBS and 1% Pen-Strep (TH-depleted DMEM) was added to the dish to inactivate the trypsin. The cell suspension was centrifuged at 350×g at room temperature for 3 min. The supernatant was aspirated out and the cell pellet was resuspended in TH-depleted DMEM. […] After 24 hr incubation, the media was replaced with treatment media. All compounds were serially diluted in DMSO and final concentrations were reached by dilution in TH-depleted DMEM (0.1% DMSO). The cells were incubated in treatment media for 24 hr. Treatments were performed in biological duplicates.
After 24 h in treatment media, the cells were lysed directly on the culture plates and cDNA was produced using the TaqMan™ Fast Advanced Cells-to-CT™ Kit (A35374, Invitrogen) and following the manufacturer's protocol. RT-qPCR for CPT1A (Hs00912671_m1) and two housekeeping genes, ACTB (Hs01060665_g1) and TFG (Hs02832013_g1), was performed using TaqMan™ Fast Advanced Master Mix. RT-qPCR reactions were run on the qTOWER^3 84 G (Analytik Jena) in technical duplicates.
ΔRn values were obtained from the qPCRsoft384 1.0 software and CPT1A gene expression was quantified via the 2ΔΔCt method. Dose-response curves were generated using GraphPad Prism 8 using four parameter logistic equation without top constraint to derive EC50 and Emax.

Row | Emax [1] | EC50 [1] | Emax [2] | EC50 [2] | EC50 (Huh-7 cells) | Compound | Emax (Huh-7 cells)
1 | < 50% | > 25 µM | < 50% | < 0.05 µM | 0.1 to 1 µM | Cc1cc(OCc2noc(=O)[nH]2)c(C)c(C)c1Cc1ccc2[nH]cc(C(C)C)c2n1 [Compound 11, 3-((4-((3-isopropyl-1H-pyrrolo[3,2-b]pyridin-5-yl)methyl)-2,3,5-trimethylphenoxy)methyl)-1,2,4-oxadiazol-5(4H)-one] | < 50%
2 | < 50% | 1 to 25 µM | < 50% | 0.05 to 0.25 µM | 0.1 to 1 µM | Cc1nc(OCC(=O)O)c(C)c(C)c1Cc1ccc2[nH]cc(C(C)C)c2n1 [Compound 6, [[5-([3-isopropyl-1H-pyrrolo[3,2-b]pyridin-5-yl]methyl)-3,4,6-trimethylpyridin-2-yl]oxy]acetic acid] | < 50%
3 | < 50% | > 25 µM | < 50% | 1 to 25 µM | – | Cc1cc(OC(C)C(=O)O)c(C)c(C)c1Cc1ccc2[nH]cc(C(C)C)c2n1 (stereo not drawn) [Compound 7, 2-(4-((3-isopropyl-1H-pyrrolo[3,2-b]pyridin-5-yl)methyl)-2,3,5-trimethylphenoxy)propanoic acid] | –
4 | < 50% | > 25 µM | < 50% | < 0.05 µM | – | Cc1cc(OC(F)C(=O)O)c(C)c(C)c1Cc1ccc2[nH]cc(C(C)C)c2n1 (stereo not drawn) [Compound 9, 2-fluoro-2-(4-((3-isopropyl-1H-pyrrolo[3,2-b]pyridin-5-yl)methyl)-2,3,5-trimethylphenoxy)acetic acid] | –
5 | < 50% | > 25 µM | < 50% | < 0.05 µM | – | Cc1cc(OC(C)(C)C(=O)O)c(C)c(C)c1Cc1ccc2[nH]cc(C(C)C)c2n1 [Compound 8, 2-(4-((3-isopropyl-1H-pyrrolo[3,2-b]pyridin-5-yl)methyl)-2,3,5-trimethylphenoxy)-2-methylpropanoic acid] | –
6 | < 50% | < 0.05 µM | < 50% | < 0.05 µM | – | CCOC(=O)C(=O)Nc1cc(C)c(Cc2ccc3[nH]cc(C(C)C)c3n2)c(C)c1 [Compound 5, ethyl 2-((4-((3-isopropyl-1H-pyrrolo[3,2-b]pyridin-5-yl)methyl)-3,5-dimethylphenyl)amino)-2-oxoacetate] | –
7 | < 50% | 0.25 to 1 µM | < 50% | < 0.05 µM | 0.1 to 1 µM | Cc1cc(OCC(=O)O)c(C)c(C)c1Cc1ccc2[nH]cc(C(C)C)c2n1 [Compound 1, 2-(4-((3-isopropyl-1H-pyrrolo[3,2-b]pyridin-5-yl)methyl)-2,3,5-trimethylphenoxy)acetic acid] | > 75%
8 | < 50% | 0.05 to 0.25 µM | < 50% | < 0.05 µM | < 0.1 µM | Cc1cc(OCC(=O)O)cc(C)c1Cc1ccc2[nH]cc(C(C)C)c2n1 [Compound 2, 2-(4-((3-isopropyl-1H-pyrrolo[3,2-b]pyridin-5-yl)methyl)-3,5-dimethylphenoxy)acetic acid] | > 75%
9 | < 50% | > 25 µM | < 50% | < 0.05 µM | – | Cc1cc(OCc2nn[nH]n2)c(C)c(C)c1Cc1ccc2[nH]cc(C(C)C)c2n1 [Compound 10, 5-(4-((2H-tetrazol-5-yl)methoxy)-2,3,6-trimethylbenzyl)-3-isopropyl-1H-pyrrolo[3,2-b]pyridine] | –
10 | < 50% | < 0.05 µM | < 50% | < 0.05 µM | – | Cc1cc(NC(=O)c2noc(=O)[nH]2)cc(C)c1Cc1ccc2[nH]cc(C(C)C)c2n1 [Compound 3, N-(4-((3-isopropyl-1H-pyrrolo[3,2-b]pyridin-5-yl)methyl)-3,5-dimethylphenyl)-5-oxo-4,5-dihydro-1,2,4-oxadiazole-3-carboxamide] | –
11 | < 50% | < 0.05 µM | 50 to 75% | < 0.05 µM | – | Cc1cc(NC(=O)C(=O)O)cc(C)c1Cc1ccc2[nH]cc(C(C)C)c2n1 [Compound 4, 2-((4-((3-isopropyl-1H-pyrrolo[3,2-b]pyridin-5-yl)methyl)-3,5-dimethylphenyl)amino)-2-oxoacetic acid] | –

Row | Compound | Emax [1] | EC50 [1] | Emax [2] | EC50 [2] | EC50 (Huh-7 cells) | Emax (Huh-7 cells)
12 | N[C@@H](Cc1cc(I)c(Oc2ccc(O)c(I)c2)c(I)c1)C(=O)O [Reference(T3), triiodothyronine, reference compound] | – | – | – | – | < 0.1 µM | > 75%
